Laboratory results reported in patent publication US20020143143A1, “Peptides designed for the diagnosis and treatment of rheumatoid arthritis” (priority 1999, published 2002).
Where two headings read alike, the source gives them in different places.

Assays:
[1] = tested on: RA specific autoantibodies in human sera; test: LIA comparison of synthetic peptides with existing peptides and citrullinated recombinant filaggrin (Example 3); assay type: binding; details: 212 established RA sera, 153 disease control sera (table title: 225 and 154); ROC analysis
Description: Streptavidin-complexed peptides were applied directly on a nylon membrane with a plastic backing. Blocked strips were incubated during 1 hour with human sera diluted 1/100 in 1 ml PBS, 0.5% caseine, 0.1% Triton X705, 10 mM MgCl2.6H2O. After washing with PBS, 0.05% Tween20, goat anti-human IgG-AP conjugate (Promega) diluted in PBS, 0.1% caseine, 0.2% Triton X705 was added for 30 min. Strips were developed in 100 mM NaCl, 100 mM Tris-HCl, pH 9.8, 50 mM MgCl2.6H2O substrate buffer containing the chromogenic substrate NBT/BCIP. Reaction was stopped after 30 min by addition of 0.2 N H2SO4. Air-dried strips were scanned using a HP Scanjet 5P scanner and an in-house LIA interpretation software program.
Recombinant human filaggrin was expressed in E. coli and purified by Ni-IMAC chromatography. Citrullination was performed as described by Senshu et al. (1995) using peptidylarginine deiminase (Sigma) at a 1/120 enzyme/substrate ratio during 4h at 37° C.
Three synthetic peptides (IGP1475, 1477 and 1564) described by Girbal-Neuhauser (1999) (patent application WO 99/35167) and the cyclic peptide IGP1546 described in the patent application WO 98/22503, were synthesised and used for comparison with IGP1611, 1646, 1650 and 1651 on LIA.
On the same strips, also citrullinated recombinant E. coli filaggrin was applied. […]

[2] = tested on: anti-filaggrin autoantibodies; details: cited from earlier work
[3] = tested on: anti-filaggrin antibodies in human sera; test: Western blotting using natural filaggrin; assay type: binding
Description: Natural filaggrin was purified from human skin obtained freshly after abdominoplasty according to the protocol of Simon et al. (1993). The amount of protein was determined by the Bradford protein assay as modified by Peterson (1983) using BSA standard curves. The crude filaggrin preparation was subjected to 15% Laemmli SDS-PAGE using the Bio-Rad mini-gel apparatus. Two-μg protein/cm was loaded in a large slot and electrophoresed under standard conditions. The gel was subsequently electroblotted onto nitrocellulose membrane in 10% methanol, 10 mM CAPS, pH 11.0 during 40 min. The blot was blocked in PBS, 0.05% Tween20, 1% gelatin and cut into 3 mm strips, which were probed with human sera overnight at a 1/100 dilution in PBS, 0.05% Tween20, 0.1% gelatin. As a secondary antibody the anti-human IgG-AP conjugate (Sigma, St Louis, […]) was added at a 1/1000 dilution; visualisation occurred with the NBT/BCIP chromogenic substrate.

RA sera [4] = details: 159/279 RA sera; specificity level of 98.6% using 213 disease control sera; cited from earlier work
RA sera [5] = details: cited from earlier work

Citr. rec. filaggrin: Recombinant human filaggrin expressed in E. coli, citrullinated using peptidylarginine deiminase
Sensitivity at 98% spec. level [1]: 32%

recombinant human filaggrin: recombinant human filaggrin, in vitro deiminated by PAD or non-citrullinated (Girbal-Neuhauser et al., 1999)
reactivity with human RA sera in ELISA ([2]; after in vitro deimination by peptidylarginine deiminase (PAD)): reactive
reactivity with human RA sera in ELISA ([2]; non-citrullinated protein): unreactive

natural filaggrin: Natural filaggrin purified from human skin (crude filaggrin preparation); in b6 isolated from human epidermis
sensitivity of Western blot ([3]; 47 sera from patients with early disease (less than 12 months of symptoms)): 25%
specificity of Western blot system ([3]; 153 disease controls): 94%
sensitivity of Western blot ([3]; 212 longstanding RA sera): 41%
RA sera showing positive reaction on Western blot (RA sera [4]): 37%
RA sera detected in ELISA (RA sera [5]; 55 RA sera): 47%
healthy controls showing positivity in ELISA (RA sera [5]; healthy controls): 1%
